Test [1] relates to Mycobacterium tuberculosis. The experiment in a line: Inhibition of Mycobacterium tuberculosis 20S proteasome open-gate mutant using Suc-LLVY-AMC as substrate at 1 mM preincubated for 30 mins followed by substrate addition measured after 90 mins by fluorescence assay.
The subject of test [2] is Mycobacterium tuberculosis. The experiment in a line: Inhibition of Mycobacterium tuberculosis 20S proteasome open-gate mutant chymotrypsin like activity using Suc-LLVY-AMC as substrate assessed as decrease in enzyme velocity up to 100 uM.
The nature of test [3]: Selectivity for Mycobacterium tuberculosis 20S proteasome open-gate mutant over human 20S proteasome.
Test [4] in a line: Inhibition of Mycobacterium tuberculosis 20S proteasome open-gate mutant using Suc-LLVY-AMC as substrate preincubated for 30 mins followed by substrate addition measured after 90 mins by fluorescence assay.

Each structure is given as a SMILES string. Calls of active or inactive are those of the source. No cut-off for these calls is given here. Some results are limits rather than exact numbers.

For orientation: IC50 means the concentration at which inhibition is half-maximal. Higher therefore signals a need for much substance.

With `CC(C)C[C@@H](NC(=O)[C@H](Cc1ccccc1)NC(=O)c1cnccn1)c1nsc(=O)o1`, the inhibition entry in test [1] and in test [2] was “inactive” in each case. `CC(C)C[C@H](NC(=O)[C@H](Cc1ccccc1)NC(=O)c1cnccn1)c1nsc(=O)o1`: the inhibition entry in test [1] and in test [2] was “inactive” each time. As to `COc1cccc(-c2nsc(=O)o2)c1`, the Selectivity ratio in test [3] was more than 1000. Regarding `CC(C)C[C@H](NC(=O)[C@H](Cc1ccccc1)NC(=O)c1cnccn1)B(O)O` [BORTEZOMIB], in test [4], the midpoint of inhibition, the IC50, lay at 0.0249 µM.
